# From ChEMBL document CHEMBL4813950, “Comparing the efficacy and selectivity of Ck2 inhibitors. A phosphoproteomics approach” (Eur J Med Chem, 2021)
# What was measured:
# Format in all cases: cell-based
# [1] = molecular target: Protein transport protein Sec31A (Mus musculus) (UniProt Q3UPL0); assay: Inhibition of Sec31a in mouse C2C12 cells assessed as reduction in phospho-sites occupancy at 4 uM after 5 hrs by SILAC based LC-MS/MS analysis relative to control
# [2] = molecular target: Fermitin family homolog 2 (Mus musculus) (UniProt Q8CIB5); assay: Inhibition of Fermt2 in mouse C2C12 cells assessed as reduction in phospho-sites occupancy at 4 uM after 5 hrs by SILAC based LC-MS/MS analysis relative to control
# [3] = molecular target: Enhancer of mRNA-decapping protein 4 (Mus musculus) (UniProt Q3UJB9); assay: Inhibition of Edc4 in mouse C2C12 cells assessed as reduction in phospho-sites occupancy at 4 uM after 5 hrs by SILAC based LC-MS/MS analysis relative to control
# [4] = molecular target: Nucleoprotein TPR (Mus musculus) (UniProt F6ZDS4); assay: Inhibition of nucleoprotein TPR in mouse C2C12 cells assessed as reduction in phospho-sites occupancy at 4 uM after 5 hrs by SILAC based LC-MS/MS analysis relative to control
# [5] = molecular target: Serine/threonine-protein phosphatase 6 regulatory subunit 3 (Mus musculus) (UniProt Q922D4); assay: Inhibition of Ppp6r3 in mouse C2C12 cells assessed as reduction in phospho-sites occupancy at 4 uM after 5 hrs by SILAC based LC-MS/MS analysis relative to control
# [6] = molecular target: 182 kDa tankyrase-1-binding protein (Mus musculus) (UniProt P58871); assay: Inhibition of tankyrase-1-binding protein in mouse C2C12 cells assessed as reduction in phospho-sites occupancy at 4 uM after 5 hrs by SILAC based LC-MS/MS analysis relative to control
# [7] = molecular target: DNA replication licensing factor MCM2 (Mus musculus) (UniProt P97310); assay: Inhibition of Mcm2 in mouse C2C12 cells assessed as reduction in phospho-sites occupancy at 4 uM after 5 hrs by SILAC based LC-MS/MS analysis relative to control
# [8] = molecular target: Coiled-coil domain-containing protein 43 (Mus musculus) (UniProt Q9CR29); assay: Inhibition of Ccdc43 in mouse C2C12 cells assessed as reduction in phospho-sites occupancy at 4 uM after 5 hrs by SILAC based LC-MS/MS analysis relative to control
# Chain of Coiled-coil domain-containing protein 43 (Mus musculus) (Q9CR29 whole entry, the tested form may be a part): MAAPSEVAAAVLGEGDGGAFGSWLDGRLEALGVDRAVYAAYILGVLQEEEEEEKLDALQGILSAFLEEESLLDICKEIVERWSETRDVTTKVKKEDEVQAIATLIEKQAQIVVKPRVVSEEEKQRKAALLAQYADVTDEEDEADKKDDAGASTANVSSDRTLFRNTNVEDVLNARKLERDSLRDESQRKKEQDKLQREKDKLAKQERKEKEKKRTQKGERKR
# [9] = molecular target: E3 ubiquitin-protein ligase NEDD4 (Mus musculus) (UniProt P46935); assay: Inhibition of Nedd4 in mouse C2C12 cells assessed as reduction in phospho-sites occupancy at 4 uM after 5 hrs by SILAC based LC-MS/MS analysis relative to control
# [10] = molecular target: 1-phosphatidylinositol 4,5-bisphosphate phosphodiesterase delta-3 (Mus musculus) (UniProt Q8K2J0); assay: Inhibition of Plcd3 in mouse C2C12 cells assessed as reduction in phospho-sites occupancy at 4 uM after 5 hrs by SILAC based LC-MS/MS analysis relative to control
# [11] = molecular target: Importin subunit alpha-4 (Mus musculus) (UniProt O35344); assay: Inhibition of Kpna3 in mouse C2C12 cells assessed as reduction in phospho-sites occupancy at 4 uM after 5 hrs by SILAC based LC-MS/MS analysis relative to control
# [12] = molecular target: Centrosomal protein of 170 kDa (Mus musculus) (UniProt Q6A065); assay: Inhibition of Cep170 in mouse C2C12 cells assessed as reduction in phospho-sites occupancy at 4 uM after 5 hrs by SILAC based LC-MS/MS analysis relative to control
# Chain of Centrosomal protein of 170 kDa (Mus musculus) (Q6A065 whole entry): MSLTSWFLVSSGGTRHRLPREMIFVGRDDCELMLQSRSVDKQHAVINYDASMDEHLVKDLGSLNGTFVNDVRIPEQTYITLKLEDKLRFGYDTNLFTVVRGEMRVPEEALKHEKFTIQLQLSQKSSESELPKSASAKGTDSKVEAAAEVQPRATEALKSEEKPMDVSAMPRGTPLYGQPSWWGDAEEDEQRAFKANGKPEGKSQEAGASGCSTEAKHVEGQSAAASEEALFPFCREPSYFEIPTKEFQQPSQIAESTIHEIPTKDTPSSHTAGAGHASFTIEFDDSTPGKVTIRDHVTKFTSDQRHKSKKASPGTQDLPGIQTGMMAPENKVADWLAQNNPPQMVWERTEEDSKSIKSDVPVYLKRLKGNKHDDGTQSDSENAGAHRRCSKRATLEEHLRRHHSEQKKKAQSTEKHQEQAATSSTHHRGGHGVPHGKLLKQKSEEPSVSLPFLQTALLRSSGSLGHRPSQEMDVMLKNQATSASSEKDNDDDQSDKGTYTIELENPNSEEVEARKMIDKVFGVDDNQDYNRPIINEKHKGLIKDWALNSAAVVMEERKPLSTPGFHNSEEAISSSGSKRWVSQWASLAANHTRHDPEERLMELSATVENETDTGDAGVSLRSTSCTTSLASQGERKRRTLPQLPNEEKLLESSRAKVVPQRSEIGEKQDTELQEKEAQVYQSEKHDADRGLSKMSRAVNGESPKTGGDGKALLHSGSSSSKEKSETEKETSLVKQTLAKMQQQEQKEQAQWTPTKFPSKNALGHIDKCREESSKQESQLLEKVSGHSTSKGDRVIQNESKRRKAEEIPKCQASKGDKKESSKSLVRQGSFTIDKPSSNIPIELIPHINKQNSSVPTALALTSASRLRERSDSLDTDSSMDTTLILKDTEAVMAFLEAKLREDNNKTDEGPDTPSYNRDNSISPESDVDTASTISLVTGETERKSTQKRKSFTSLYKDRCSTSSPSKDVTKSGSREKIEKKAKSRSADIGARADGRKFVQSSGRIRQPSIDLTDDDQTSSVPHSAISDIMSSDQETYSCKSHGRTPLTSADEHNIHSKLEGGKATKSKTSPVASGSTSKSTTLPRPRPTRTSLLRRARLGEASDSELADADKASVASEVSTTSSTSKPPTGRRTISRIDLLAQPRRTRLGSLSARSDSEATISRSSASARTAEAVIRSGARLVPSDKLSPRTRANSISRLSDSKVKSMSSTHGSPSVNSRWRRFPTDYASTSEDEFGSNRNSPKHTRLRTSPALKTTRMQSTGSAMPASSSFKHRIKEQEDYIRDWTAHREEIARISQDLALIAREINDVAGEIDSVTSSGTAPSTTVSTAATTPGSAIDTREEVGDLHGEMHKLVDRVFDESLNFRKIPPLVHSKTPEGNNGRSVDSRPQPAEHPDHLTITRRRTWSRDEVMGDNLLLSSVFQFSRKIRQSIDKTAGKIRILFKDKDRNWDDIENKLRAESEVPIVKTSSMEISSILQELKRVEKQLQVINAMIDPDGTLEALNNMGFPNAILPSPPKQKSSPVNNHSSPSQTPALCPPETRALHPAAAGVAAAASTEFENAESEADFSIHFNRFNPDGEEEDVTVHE
# [13] = molecular target: Dual E2 ubiquitin-conjugating enzyme/E3 ubiquitin-protein ligase BIRC6 (Mus musculus) (UniProt O88738); assay: Inhibition of Birc6 in mouse C2C12 cells assessed as reduction in phospho-sites occupancy at 4 uM after 5 hrs by SILAC based LC-MS/MS analysis relative to control
# [14] = molecular target: E3 ubiquitin-protein ligase Praja-1 (Mus musculus) (UniProt O55176); assay: Inhibition of Pja1 in mouse C2C12 cells assessed as reduction in phospho-sites occupancy at 4 uM after 5 hrs by SILAC based LC-MS/MS analysis relative to control
# Chain of E3 ubiquitin-protein ligase Praja-1 (Mus musculus) (O55176 whole entry): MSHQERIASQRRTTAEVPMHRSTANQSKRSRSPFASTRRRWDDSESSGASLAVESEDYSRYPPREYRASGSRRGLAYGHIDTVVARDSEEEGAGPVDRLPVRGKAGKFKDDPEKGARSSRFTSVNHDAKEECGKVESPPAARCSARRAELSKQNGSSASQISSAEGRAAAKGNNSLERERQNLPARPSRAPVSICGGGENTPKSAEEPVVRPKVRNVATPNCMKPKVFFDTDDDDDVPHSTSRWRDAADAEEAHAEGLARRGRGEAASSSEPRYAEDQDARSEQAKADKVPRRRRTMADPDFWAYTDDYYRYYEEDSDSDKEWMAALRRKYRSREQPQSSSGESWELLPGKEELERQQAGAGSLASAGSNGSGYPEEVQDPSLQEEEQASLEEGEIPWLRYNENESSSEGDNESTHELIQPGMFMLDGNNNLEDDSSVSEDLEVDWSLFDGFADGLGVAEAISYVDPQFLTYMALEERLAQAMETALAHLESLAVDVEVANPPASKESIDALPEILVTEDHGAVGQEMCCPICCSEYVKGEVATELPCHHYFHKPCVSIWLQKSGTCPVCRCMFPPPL
# [15] = molecular target: Charged multivesicular body protein 3 (Mus musculus) (UniProt Q9CQ10); assay: Inhibition of Chmp3 in mouse C2C12 cells assessed as reduction in phospho-sites occupancy at 4 uM after 5 hrs by SILAC based LC-MS/MS analysis relative to control
# [16] = molecular target: Transcriptional regulator ATRX (Mus musculus) (UniProt Q61687); assay: Inhibition of ATRX in mouse C2C12 cells assessed as reduction in phospho-sites occupancy at 4 uM after 5 hrs by SILAC based LC-MS/MS analysis relative to control
# [17] = molecular target: Desmoyokin (Mus musculus) (UniProt Q61484); assay: Inhibition of AHNAK in mouse C2C12 cells assessed as reduction in phospho-sites occupancy at 4 uM after 5 hrs by SILAC based LC-MS/MS analysis relative to control
# [18] = molecular target: Pleckstrin homology-like domain family B member 1 (Mus musculus) (UniProt Q6PDH0); assay: Inhibition of Phldb1 in mouse C2C12 cells assessed as reduction in phospho-sites occupancy at 4 uM after 5 hrs by SILAC based LC-MS/MS analysis relative to control
# Striatin (Mus musculus) = Striatin (Mus musculus) (UniProt O55106); assay: Inhibition of Stria-tin in mouse C2C12 cells assessed as reduction in phospho-sites occupancy at 4 uM after 5 hrs by SILAC based LC-MS/MS analysis relative to control
# [19] = molecular target: Bcl-2-associated transcription factor 1 (Mus musculus) (UniProt Q8K019); assay: Inhibition of Bcl-2-associated transcription factor 1 in mouse C2C12 cells assessed as reduction in phospho-sites occupancy at 4 uM after 5 hrs by SILAC based LC-MS/MS analysis relative to control
# Chain of Bcl-2-associated transcription factor 1 (Mus musculus) (Q8K019 whole entry): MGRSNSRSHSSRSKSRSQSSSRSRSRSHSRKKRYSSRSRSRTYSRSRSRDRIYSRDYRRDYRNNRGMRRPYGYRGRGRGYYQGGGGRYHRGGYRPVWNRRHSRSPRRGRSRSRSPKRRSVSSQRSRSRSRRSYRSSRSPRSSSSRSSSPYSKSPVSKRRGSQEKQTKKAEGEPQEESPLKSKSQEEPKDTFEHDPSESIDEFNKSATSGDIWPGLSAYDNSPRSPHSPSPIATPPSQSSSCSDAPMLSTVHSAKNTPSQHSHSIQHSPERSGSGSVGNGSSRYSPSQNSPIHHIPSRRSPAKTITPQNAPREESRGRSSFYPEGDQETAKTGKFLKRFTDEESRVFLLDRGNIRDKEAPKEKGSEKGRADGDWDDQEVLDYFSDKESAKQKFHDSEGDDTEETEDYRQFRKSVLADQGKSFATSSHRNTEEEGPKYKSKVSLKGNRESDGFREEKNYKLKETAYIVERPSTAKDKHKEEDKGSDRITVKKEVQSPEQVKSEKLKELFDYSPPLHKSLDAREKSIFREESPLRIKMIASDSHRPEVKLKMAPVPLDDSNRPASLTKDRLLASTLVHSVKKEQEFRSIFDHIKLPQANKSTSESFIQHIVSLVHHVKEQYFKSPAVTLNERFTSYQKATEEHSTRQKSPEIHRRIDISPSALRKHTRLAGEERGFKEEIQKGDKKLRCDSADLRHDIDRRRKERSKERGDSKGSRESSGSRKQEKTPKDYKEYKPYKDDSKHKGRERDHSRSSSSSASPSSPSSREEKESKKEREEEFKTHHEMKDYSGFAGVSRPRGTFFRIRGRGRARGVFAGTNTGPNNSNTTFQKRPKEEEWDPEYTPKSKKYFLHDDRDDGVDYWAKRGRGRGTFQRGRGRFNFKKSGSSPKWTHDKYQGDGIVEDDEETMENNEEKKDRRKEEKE
# [20] = molecular target: WD repeat and HMG-box DNA-binding protein 1 (Mus musculus) (UniProt P59328); assay: Inhibition of Wdhd1 in mouse C2C12 cells assessed as reduction in phospho-sites occupancy at 4 uM after 5 hrs by SILAC based LC-MS/MS analysis relative to control
# Chain of WD repeat and HMG-box DNA-binding protein 1 (Mus musculus) (P59328 whole entry): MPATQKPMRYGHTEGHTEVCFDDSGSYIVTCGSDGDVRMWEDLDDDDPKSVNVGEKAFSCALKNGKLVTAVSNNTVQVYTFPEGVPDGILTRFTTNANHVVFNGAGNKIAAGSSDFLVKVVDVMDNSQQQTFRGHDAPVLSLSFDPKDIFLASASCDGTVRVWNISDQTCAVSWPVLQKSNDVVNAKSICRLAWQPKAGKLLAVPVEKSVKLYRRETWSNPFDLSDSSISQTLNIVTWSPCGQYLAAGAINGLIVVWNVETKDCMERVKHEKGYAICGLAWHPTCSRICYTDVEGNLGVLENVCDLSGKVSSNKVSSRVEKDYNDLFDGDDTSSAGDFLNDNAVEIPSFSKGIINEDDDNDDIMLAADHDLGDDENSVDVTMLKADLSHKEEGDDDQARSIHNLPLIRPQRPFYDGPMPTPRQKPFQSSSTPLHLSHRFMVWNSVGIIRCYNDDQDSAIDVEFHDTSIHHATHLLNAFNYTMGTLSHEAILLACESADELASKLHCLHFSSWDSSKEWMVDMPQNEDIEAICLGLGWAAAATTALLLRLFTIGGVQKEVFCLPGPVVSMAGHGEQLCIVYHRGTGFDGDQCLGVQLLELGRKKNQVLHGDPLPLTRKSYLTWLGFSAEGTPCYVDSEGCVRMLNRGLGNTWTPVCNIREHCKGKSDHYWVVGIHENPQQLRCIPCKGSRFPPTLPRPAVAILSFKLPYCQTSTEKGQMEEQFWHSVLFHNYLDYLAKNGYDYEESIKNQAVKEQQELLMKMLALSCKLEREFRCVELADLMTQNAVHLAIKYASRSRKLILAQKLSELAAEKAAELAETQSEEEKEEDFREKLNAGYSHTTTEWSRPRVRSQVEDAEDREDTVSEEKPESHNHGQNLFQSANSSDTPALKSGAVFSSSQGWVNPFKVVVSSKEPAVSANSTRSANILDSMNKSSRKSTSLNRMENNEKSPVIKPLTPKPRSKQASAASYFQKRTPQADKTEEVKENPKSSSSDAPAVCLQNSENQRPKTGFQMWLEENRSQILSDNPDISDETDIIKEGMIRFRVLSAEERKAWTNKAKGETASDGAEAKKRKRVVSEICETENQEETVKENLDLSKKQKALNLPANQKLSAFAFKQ
# [21] = molecular target: Sequestosome-1 (Mus musculus) (UniProt Q64337); assay: Inhibition of Sequestosome-1 in mouse C2C12 cells assessed as reduction in phospho-sites occupancy at 4 uM after 5 hrs by SILAC based LC-MS/MS analysis relative to control
# Chain of Sequestosome-1 (Mus musculus) (Q64337 whole entry): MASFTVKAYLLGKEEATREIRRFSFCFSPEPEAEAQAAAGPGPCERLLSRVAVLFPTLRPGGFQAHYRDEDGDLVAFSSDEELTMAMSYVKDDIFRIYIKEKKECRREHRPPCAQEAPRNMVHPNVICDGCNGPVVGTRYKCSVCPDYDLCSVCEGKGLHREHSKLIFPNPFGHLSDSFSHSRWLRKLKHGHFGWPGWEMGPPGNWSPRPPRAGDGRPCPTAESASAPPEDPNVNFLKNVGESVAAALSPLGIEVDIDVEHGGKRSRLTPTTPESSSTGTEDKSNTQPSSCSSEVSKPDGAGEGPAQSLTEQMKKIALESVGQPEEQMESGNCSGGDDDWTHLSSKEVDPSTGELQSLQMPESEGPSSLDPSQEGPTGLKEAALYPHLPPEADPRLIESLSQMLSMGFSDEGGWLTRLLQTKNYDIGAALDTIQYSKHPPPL
# [22] = molecular target: Band 4.1-like protein 1 (Mus musculus) (UniProt Q9Z2H5); assay: Inhibition of Epb41l1in mouse C2C12 cells assessed as reduction in phospho-sites occupancy at 4 uM after 5 hrs by SILAC based LC-MS/MS analysis relative to control
# [23] = molecular target: UPF0690 protein C1orf52 homolog (Mus musculus) (UniProt Q9CWU4); assay: Inhibition of UPF0690 protein C1orf52 homolog in mouse C2C12 cells assessed as reduction in phospho-sites occupancy at 4 uM after 5 hrs by SILAC based LC-MS/MS analysis relative to control
# Chain of UPF0690 protein C1orf52 homolog (Mus musculus) (Q9CWU4 whole entry): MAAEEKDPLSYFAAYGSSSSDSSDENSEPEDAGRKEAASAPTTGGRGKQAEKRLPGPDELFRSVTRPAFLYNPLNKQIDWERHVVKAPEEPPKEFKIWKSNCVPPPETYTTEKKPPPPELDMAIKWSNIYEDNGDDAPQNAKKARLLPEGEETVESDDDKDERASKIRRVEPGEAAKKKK
smiles,measurement,setting,value
COc1cc(/C=N/n2c(SC)nnc2-c2ccccc2)c(Br)cc1O,fold change (FC),[1],2.98
same,fold change (FC),[2],3.05
same,fold change (FC),[3],2.17
same,fold change (FC),[4],1.51
same,fold change (FC),[5],1.75
same,fold change (FC),[6],3.06
same,fold change (FC),[7],2.12
same,fold change (FC),[8],2.68
same,fold change (FC),[9],5.83
same,fold change (FC),[10],3.31
same,fold change (FC),[11],3.44
same,fold change (FC),[12],1.86
same,fold change (FC),[13],1.62
same,fold change (FC),[14],2.53
same,fold change (FC),[15],3.19
same,fold change (FC),[16],2.83
same,fold change (FC),[17],3.22
same,fold change (FC),[18],3.3
same,fold change (FC),Striatin (Mus musculus),2.25
same,fold change (FC),[19],1.58
same,fold change (FC),[20],1.66
same,fold change (FC),[21],2.35
same,fold change (FC),[22],2.85
same,fold change (FC),[23],1.61
